How the values were obtained:
[1] = target: T1, Adenosine receptor A1 (Rattus norvegicus) (UniProt P25099); assay: Bmax value against A1 receptor
T1 sequence (whole entry): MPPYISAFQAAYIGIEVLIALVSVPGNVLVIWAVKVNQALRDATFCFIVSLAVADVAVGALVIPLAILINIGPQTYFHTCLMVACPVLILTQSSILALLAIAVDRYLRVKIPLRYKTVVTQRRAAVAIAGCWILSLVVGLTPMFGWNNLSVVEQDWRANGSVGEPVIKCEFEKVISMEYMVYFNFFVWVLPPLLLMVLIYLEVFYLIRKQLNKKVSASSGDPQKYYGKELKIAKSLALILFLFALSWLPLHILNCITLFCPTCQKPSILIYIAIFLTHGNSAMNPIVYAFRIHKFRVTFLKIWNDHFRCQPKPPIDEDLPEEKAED

Adenosine receptor A1 [2] = target: T2, Adenosine receptor A1 (Rattus norvegicus, UniProt P25099); assay: Binding affinity towards adenosine A1 receptor in rat brain membrane(KD); format: tissue-based
T2 sequence (P25099 whole entry): T1 sequence (whole entry)

Adenosine receptor A1 [3] = target: T2, Adenosine receptor A1; assay: Inhibition of photolabeling of 34 kDa polypeptide in adenosine A1 receptor

| SMILES | Bmax [1] [fmol/mg] | Kd (Adenosine receptor A1 [2]) [nM] | IC50 (Adenosine receptor A1 [3]) [nM] |
| --- | --- | --- | --- |
| CCCn1c(=O)c2nc(-c3ccc(OCC(=O)O)cc3)[nH]c2n(Cc2ccc(N)c(I)c2)c1=O | 485 | 0.8 |  |
| CCCn1c(=O)c2nc(-c3ccc(OCC(=O)O)cc3)[nH]c2n(CCc2ccc(N)c(I)c2)c1=O | 485 | 0.8 |  |
| CCCn1c(=O)c2nc(-c3ccc(OCC(=O)O)cc3)[nH]c2n(CCc2ccc(N=[N+]=[N-])c(I)c2)c1=O |  | 1.2 |  |
| CCCn1c(=O)c2nc(-c3ccc(OCC(=O)O)cc3)[nH]c2n(CCc2ccc(N)cc2)c1=O |  |  | 16 |

From ChEMBL document CHEMBL1124077, “Photoaffinity labeling adenosine A1 receptors with an antagonist 125I-labeled aryl azide derivative of 8-phenylxanthine” (J Med Chem, 1988)
